The test system of test [1] is gastric secretion in rats. The experiment in a line: Action on gastric secretion in rats after intraduodenal administration. The format is in vivo, rat. The settings on record: 40 mg/Kg i.d., activity of scopolamine bromobutylate equal to 1. The text has this:
Action on gastric secretion in rats after intraduodenal administration according to Birnbaum G., Medicina Psicosomatica, 13, 1-4 (1968).
(§1) The above experiments have been carried out in comparison with scopolamine bromobutylate as a reference. The results are shown in the following table and are expressed on the basis of the activity of scopolamine bromobutylate being equal to 1.

Test [2] relates to Shay ulcer in rats. Description: Action on Shay ulcer in rats by intraduodenal route. It counts as in vivo, rat. To be noted: 100 mg/Kg i.d., activity of scopolamine bromobutylate equal to 1.
Source text: Action on Shay ulcer in rats by intraduodenal route according to Shay H., Komarov S. A., Fels S. S., Meranze D., Gruenstein M. and Siplet H., Gastroenterology, 5, 43-61 (1945).
as §1

Test [3] relates to rabbit choledochoduodenal junction. Description: Spasmolytic activity "in vivo" on rabbit choledochoduodenal junction stimulated by neostigmine. To be noted: 10 mcg/Kg i.v.; neostigmine 60 mcg/Kg i.v.; activity of scopolamine bromobutylate equal to 1.
Source text: Spasmolytic activity "in vivo" on rabbit choledochoduodenal junction stimulated by neostigmine (60 mcg/Kg i.v.), after i.v. administration of the compound under examination, according to Luoma P., Acta Pharmacol. e Toxicol., 29, suppl. 1, 5-55 (1971).
as §1

The nature of test [4]: Overall evaluation of the spasmolytic and anti-ulcer tests. To be noted: versus scopolamine bromobutylate.
Source text: The properties of the new compounds may be illustrated by the results of the following experiments.
as §1

Six compounds from patent US3952108A, “Scopolamine derivatives for treating ulcers and spasms” (Istituto de Angeli S.p.A., priority 1972, dated 1976) can be followed below.

In the case of `C[N+]1(CC2CO2)[C@@H]2C[C@H](OC(=O)[C@H](CO)c3ccccc3)C[C@H]1[C@@H]1O[C@@H]12` (stereo partly drawn) [DA-3245, scopolamine-N-(2,3-epoxypropyl)-bromide], the “inhibition % of the gastric juice, relative to scopolamine bromobutylate = 1” value in test [1] turned out to be 1.4. Also, in test [2], the “% of animals protected from ulcer, relative to scopolamine bromobutylate = 1” value stood at 1.5. Moreover, in test [3], the “% increase of flux, relative to scopolamine bromobutylate = 1” value worked out at 0.4.

In the case of `CCCC[N+]1(C)[C@@H]2C[C@@H](OC(=O)[C@H](CO)c3ccccc3)C[C@H]1[C@@H]1O[C@@H]12` (stereo partly drawn) [Scopolamine bromobutylate, scopolamine bromobutylate, reference compound], in test [1], the “inhibition % of the gastric juice, relative to scopolamine bromobutylate = 1” value was 1. The “% of animals protected from ulcer, relative to scopolamine bromobutylate = 1” value in test [2] is 1. Further, the “% increase of flux, relative to scopolamine bromobutylate = 1” value in test [3] came out at 1.

Regarding `C[N+]1(CCC2CC2)[C@@H]2C[C@H](OC(=O)[C@H](CO)c3ccccc3)C[C@H]1[C@@H]1O[C@@H]12` (stereo partly drawn) [DA-3236, scopolamine-N-(cyclopropyl-ethyl)-bromide], the “inhibition % of the gastric juice, relative to scopolamine bromobutylate = 1” value in test [1] worked out at 1.1. Also, the “% of animals protected from ulcer, relative to scopolamine bromobutylate = 1” value in test [2] is reported as 2. Moreover, the “% increase of flux, relative to scopolamine bromobutylate = 1” value in test [3] is given as 0.9.

For the compound `CC1CC1C[N+]1(C)[C@@H]2C[C@H](OC(=O)[C@H](CO)c3ccccc3)C[C@H]1[C@@H]1O[C@@H]12` (stereo partly drawn) [DA-3235, Scopolamine-N-(2-methyl-cyclopropyl-methyl)-bromide], in test [1], the “inhibition % of the gastric juice, relative to scopolamine bromobutylate = 1” value was determined as 0.8. Besides, the “% of animals protected from ulcer, relative to scopolamine bromobutylate = 1” value in test [2] is given as 2. For the same compound, the “% increase of flux, relative to scopolamine bromobutylate = 1” value in test [3] is reported as 0.8. Further, in test [4], the “Activity compared with the reference compound, taking into account the relevant toxicities” value is “higher activities than the reference compound”.

With `C[N+]1(CC2CC2)[C@@H]2C[C@H](OC(=O)[C@H](CO)c3ccccc3)C[C@H]1[C@@H]1O[C@@H]12` (stereo partly drawn) [DA-3177, scopolamine-N-(cyclopropyl-methyl)-bromide], the “inhibition % of the gastric juice, relative to scopolamine bromobutylate = 1” value in test [1] is given as 1. In addition, the “% of animals protected from ulcer, relative to scopolamine bromobutylate = 1” value in test [2] worked out at 1.5. Besides, the “% increase of flux, relative to scopolamine bromobutylate = 1” value in test [3] is recorded as 0.9. For the same compound, the “Activity compared with the reference compound, taking into account the relevant toxicities” value in test [4] was “higher activities than the reference compound”.

In the case of `C[N+]1(CC2CCC2)[C@@H]2C[C@H](OC(=O)[C@H](CO)c3ccccc3)C[C@H]1[C@@H]1O[C@@H]12` (stereo partly drawn) [DA-3237, Scopolamine-N-(cyclobutyl-methyl)-bromide], the “inhibition % of the gastric juice, relative to scopolamine bromobutylate = 1” value in test [1] was 1.2. In test [2], the “% of animals protected from ulcer, relative to scopolamine bromobutylate = 1” value came to 2. Further, the “% increase of flux, relative to scopolamine bromobutylate = 1” value in test [3] turned out to be 1.2. Also, the “Activity compared with the reference compound, taking into account the relevant toxicities” value in test [4] was “higher activities than the reference compound”.
